Source: BigSolDB 2.1

O=S(=O)([O-])NC1CCCCC1.[Na+]
Conditions | solubility (mole fraction)
in DMF, 283.15 K | 3.1e-05
in DMF, 288.14 K | 0.000121
in DMF, 293.17 K | 0.000214
in DMF, 298.15 K | 0.000364
in DMF, 303.13 K | 0.00051
in DMF, 308.15 K | 0.000724
in DMF, 313.14 K | 0.00095
in DMF, 318.13 K | 0.00119
in DMF, 323.17 K | 0.00141
in DMSO, 293.13 K | 0.000997
in DMSO, 298.15 K | 0.00226
in DMSO, 303.14 K | 0.00433
in DMSO, 308.15 K | 0.00792
in DMSO, 313.16 K | 0.0117
in DMSO, 318.15 K | 0.0154
in DMSO, 323.2 K | 0.0183
in DMSO, 328.15 K | 0.0198
in DMSO, 333.17 K | 0.0203
in acetic acid, 293.15 K | 0.0037
in acetic acid, 298.14 K | 0.00501
in acetic acid, 303.15 K | 0.00649
in acetic acid, 308.17 K | 0.00753
in acetic acid, 313.15 K | 0.00877
in acetic acid, 318.13 K | 0.0103
in acetic acid, 323.15 K | 0.0115
in acetic acid, 328.17 K | 0.0128
in acetic acid, 333.2 K | 0.0134
in formamide, 283.13 K | 0.0319
in formamide, 288.15 K | 0.0391
in formamide, 293.16 K | 0.0438
in formamide, 298.17 K | 0.0472
in formamide, 303.15 K | 0.0506
in formamide, 308.14 K | 0.0526
in formamide, 313.15 K | 0.0543
in formamide, 318.12 K | 0.0554
in formamide, 323.15 K | 0.0567
in formic acid, 283.13 K | 0.016
in formic acid, 288.13 K | 0.0179
in formic acid, 293.1 K | 0.0209
in formic acid, 299.12 K | 0.0239
in formic acid, 303.15 K | 0.0275
in formic acid, 308.17 K | 0.0319
in formic acid, 313.13 K | 0.037
in formic acid, 318.2 K | 0.0424
in formic acid, 323.15 K | 0.0487
in methanol, 283.1 K | 0.00271
in methanol, 288.15 K | 0.00295
in methanol, 293.24 K | 0.00314
in methanol, 298.1 K | 0.00331
in methanol, 303.15 K | 0.00352
in methanol, 308.2 K | 0.00376
in methanol, 313.19 K | 0.00405
in methanol, 318.2 K | 0.00436
in methanol, 323.15 K | 0.00467
in water, 283.13 K | 0.0152
in water, 288.17 K | 0.0166
in water, 293.15 K | 0.018
in water, 298.14 K | 0.02
in water, 303.17 K | 0.0233
in water, 308.13 K | 0.0284
in water, 313.15 K | 0.0363
in water, 318.14 K | 0.0461
in water, 323.15 K | 0.0512
